This is an account of results in ChEMBL document CHEMBL1134173, “FR131535, a novel water-soluble echinocandin-like lipopeptide: synthesis and biological properties” (Bioorg Med Chem Lett, 2001).

Molecules are shown by their SMILES. ≈ marks a conversion by molar mass, not a printed value. Numbered stars: 1 amine (or outer) side, 2 acyl side, 3 side chain; on linkers, the order of the positions; unused ones are H or OH. Bridge positions count the residues as written; N and C are the ends. Square brackets hold non-standard residues; d marks the D form. Peptide text beside a SMILES is read from it. * marks the point of attachment. hTyr(3S-OH,4S-OH,3'-OSO3H) = N[C@H](C(=O)O)[C@H](O)[C@@H](O)c1ccc(O)c(OS(=O)(=O)O)c1; Orn(4R-OH,5R-OH) = O=C([C@H](C[C@@H](O)[C@@H](O)N[*:3])N[*:1])[*:2]; Orn(4R-OH,5S-OH) = O=C([C@H](C[C@@H](O)[C@H](O)N[*:3])N[*:1])[*:2]; hTyr(3S-OH,4S-OH) = N[C@H](C(=O)O)[C@H](O)[C@@H](O)c1ccc(O)cc1; Pro(3S-OH,4S-Me) = C[C@H]1CN[C@H](C(=O)O)[C@H]1O; Benzoyl(4-octyloxy) = CCCCCCCCOc1ccc(C(=O)*)cc1; Gln(3R-OH) = NC(=O)C[C@@H](O)[C@H](N)C(=O)O; Palmitoyl = CCCCCCCCCCCCCCCC(=O)*; Hyp = O=C(O)[C@@H]1C[C@@H](O)CN1 Bounds are passed on as bounds.

The subject of test [1] is Aspergillus niger. As to the kind of experiment: In vitro antifungal activity against Aspergillus niger ATCC 9642 at 37 degrees C for 22h. To be noted: ATCC 9642, 22 h. It is filed as functional, organism-based.
The subject of test [2] is Aspergillus fumigatus. Put plainly: In vitro antifungal activity against Aspergillus fumigatus FD050 at 37 degrees C for 22h. It is filed as functional, organism-based.
The test system of test [3] is Candida albicans. As to the kind of experiment: In vitro inhibitory concentration required for antifungal activity against Candida albicans FP578 at 37 degrees C for 22h. It counts as functional, organism-based.
Test [4] concerns Pichia kudriavzevii. Put plainly: In vitro antifungal activity against Candida krusei YC109 at 37 degrees C for 22h. It is filed as functional, organism-based.
The test system of test [5] is Candida albicans. As to the kind of experiment: In vitro antifungal activity against Candida albicans FP582 at 37 degrees C for 22h. It counts as functional, organism-based.
Test [6] relates to Candida albicans. As to the kind of experiment: In vitro antifungal activity against Candida albicans FP629 at 37 degrees C for 22h. It counts as functional, organism-based.
Test [7] deals with Candida albicans. As to the kind of experiment: In vitro antifungal activity against Candida albicans FP633 at 37 degrees C for 22h. It counts as functional, organism-based.
The test system of test [8] is Candida tropicalis. As to the kind of experiment: In vitro antifungal activity against Candida tropicalis YC118 at 37 degrees C for 22h. It is filed as functional, organism-based.
Test [9] deals with Cryptococcus neoformans. As to the kind of experiment: In vitro antifungal activity against Cryptococcus neoformans YC203 at 30 degrees C for 48 hr. It is filed as functional, organism-based.
Test [10] relates to Cyberlindnera jadinii. Put plainly: In vitro antifungal activity against Candida utilis YC123 at 37 degrees C for 22h. Conditions: Williopsis jadinii. It counts as functional, organism-based.
Test [11] relates to Candida albicans. As to the kind of experiment: In vivo effective dose for antifungal activity on sc administration in female mice infected with 2.5*10e6 cells/mL of Candida albicans at day 10. It counts as functional.
Test [12] relates to Candida albicans. Put plainly: In vivo effective dose for antifungal activity on sc administration in female mice infected with 2.5*10e6 cells/mL of Candida albicans at day 14. It is filed as functional.
Test [13] concerns Cryptococcus neoformans. As to the kind of experiment: In vitro inhibitory concentration degrees C for 48 hr. It is filed as functional, organism-based.
For test [14], the species on record is Mus musculus. Put plainly: Minimum lytic concentration that lysed red blood cells in mouse. It is filed as functional.
The species named for test [15] is Homo sapiens. Put plainly: Lytic concentration for hemolytic activity in human by akaishi method. It is filed as functional.
The species entered for test [16] is Homo sapiens. As to the kind of experiment: Minimum lytic concentration that lysed red blood cells in human. It counts as functional.
Test [17] concerns Candida albicans. Put plainly: Compound was tested for inhibitory activity against 1,3-beta-glucan synthase from Candida albicans 6406. It is filed as functional.
The subject of test [18] is Candida albicans. Put plainly: In vitro antifungal activity against Candida albicans FP578 at 37 degrees C for 22h. It is filed as functional, organism-based.
Test [19] concerns Pneumocystis carinii. As to the kind of experiment: Evaluated for inhibitory growth of Pneumocystis carinii cysts in lungs administered at the dose of 10 mg/kg expressed as number of cysts/lungs for 8 weeks. It counts as functional.
Test [20] has as its system Pneumocystis carinii. Put plainly: Evaluated for inhibitory growth of Pneumocystis carinii cysts in lungs administered at the dose of 10 mg/kg expressed as number of cysts/lungs for 3 weeks. It is filed as functional.

Broadly, the IC50 is the concentration needed to halve the response being measured. Read a high IC50 as a need for much substance. Consider `C[C@@H]1[C@H](O)[C@@H](C)/C=C/C=C/C=C/C=C/C=C/C=C/C=C/[C@H](O[C@@H]2O[C@H](C)[C@@H](O)[C@H](N)[C@@H]2O)C[C@@H]2O[C@](O)(C[C@@H](O)C[C@@H](O)[C@H](O)CC[C@@H](O)C[C@@H](O)CC(=O)O[C@H]1C)C[C@H](O)[C@H]2C(=O)O` [AMPHOTERICIN B], for which the IC50 in test [1] turned out to be 1.9 µg/mL (≈ 2.06 µM); in test [2] it was 0.62 µg/mL (≈ 0.671 µM); in test [3], 0.39 µg/mL (≈ 0.422 µM); in [4], 1.6 µg/mL (≈ 1.73 µM); in test [5] it was 0.55 µg/mL (≈ 0.595 µM); in test [6] it was 0.39 µg/mL (≈ 0.422 µM). The IC50 in [7] came out at 0.39 µg/mL (≈ 0.422 µM); in test [8], 0.62 µg/mL (≈ 0.671 µM); in [9], 0.39 µg/mL (≈ 0.422 µM); in test [10], 0.47 µg/mL (≈ 0.509 µM).

By ED50 is commonly meant the midpoint of the dose-response relation. A lower ED50 goes with greater potency. Take `OC(Cn1cncn1)(Cn1cncn1)c1ccc(F)cc1F` [FLUCONAZOLE]: the figures for the median effective dose (ED50) in test [11] and in test [12] were below 1 mg/kg and 2.4 mg/kg, respectively.

With `CCCCCCCCOc1ccc(C(=O)N[C@H]2C[C@@H](O)[C@@H](O)NC(=O)[C@@H]3[C@@H](O)[C@@H](C)CN3C(=O)[C@H]([C@@H](C)O)NC(=O)[C@H]([C@H](O)[C@@H](O)c3ccc(O)cc3)NC(=O)[C@@H]3C[C@@H](O)CN3C(=O)[C@H]([C@@H](C)O)NC2=O)cc1` [CILOFUNGIN] ({Benzoyl(4-octyloxy)}-[Orn(4R-OH,5R-OH)]T[Hyp][hTyr(3S-OH,4S-OH)]T[Pro(3S-OH,4S-Me)]; lactam 1-C), the IC50 in [1] is 0.08 µg/mL (≈ 0.0777 µM); in test [2], above 0.003 µg/mL; in test [3], 0.36 µg/mL (≈ 0.349 µM); in test [4], 3.2 µg/mL (≈ 3.11 µM); in test [5], 0.24 µg/mL (≈ 0.233 µM); in [6] it was 0.47 µg/mL (≈ 0.456 µM). For the same molecule, the IC50 was 0.39 µg/mL (≈ 0.379 µM) in test [7], 0.94 µg/mL (≈ 0.912 µM) in [8], above 2.5 µg/mL in test [13] and 0.94 µg/mL (≈ 0.912 µM) in test [10]. Moreover, the ED50 in test [11] was 5 mg/kg; in [12], above 10 mg/kg. Further, the MLC in test [14] is above 500 µg/mL; in test [16] it was above 1000 µg/mL. The LC30 in test [15] was above 500 µg/mL.

As to `CCCCCCCCCCCCCCCC(=O)N[C@H]1C[C@@H](O)[C@H](O)NC(=O)[C@@H]2[C@@H](O)[C@@H](C)CN2C(=O)[C@H]([C@H](O)CC(N)=O)NC(=O)[C@H]([C@H](O)[C@@H](O)c2ccc(O)c(OS(=O)(=O)O)c2)NC(=O)[C@@H]2C[C@@H](O)CN2C(=O)[C@H]([C@@H](C)O)NC1=O` (Palmitoyl-[Orn(4R-OH,5S-OH)]T[Hyp][hTyr(3S-OH,4S-OH,3'-OSO3H)][Gln(3R-OH)][Pro(3S-OH,4S-Me)]; lactam 1-C), the IC50 in test [1] was 0.004 µg/mL (≈ 0.0034 µM); in [2] it was 1.3 µg/mL (≈ 1.11 µM); in [4] it was 0.14 µg/mL (≈ 0.119 µM); in test [17], 0.7 µg/mL (≈ 0.596 µM); in [18], 0.025 µg/mL (≈ 0.0213 µM); in test [5], 0.004 µg/mL (≈ 0.0034 µM). In addition, the 50% inhibitory concentration (IC50) is 0.018 µg/mL (≈ 0.0153 µM) in [6]; 0.018 µg/mL (≈ 0.0153 µM) in test [7]; 0.09 µg/mL (≈ 0.0766 µM) in test [8]; above 2.5 µg/mL in [9]; 0.03 µg/mL (≈ 0.0255 µM) in test [10]. In addition, the median effective dose (ED50) in test [11] was 1.1 mg/kg; in test [12] it was 2.9 mg/kg. The MLC in test [14] and in [16] was 31 µg/mL (≈ 26.4 µM) in each case. The results for the Activity in test [19] and in test [20] were 2 and below 1.8, respectively. The same molecule came in with an LC30 in test [15] of 160 µg/mL (≈ 136 µM).

Turning to `CCCCCCCCOc1ccc(C(=O)N[C@H]2C[C@@H](O)[C@H](O)NC(=O)[C@@H]3[C@@H](O)[C@@H](C)CN3C(=O)[C@H]([C@H](O)CC(N)=O)NC(=O)[C@H]([C@H](O)[C@@H](O)c3ccc(O)c(OS(=O)(=O)[O-])c3)NC(=O)[C@@H]3C[C@@H](O)CN3C(=O)[C@H]([C@@H](C)O)NC2=O)cc1.[Na+]` [FR-131535] ({Benzoyl(4-octyloxy)}-[Orn(4R-OH,5S-OH)]T[Hyp][hTyr(3S-OH,4S-OH,3'-OSO3H)][Gln(3R-OH)][Pro(3S-OH,4S-Me)]; lactam 1-C), the IC50 in test [1] was 0.16 µg/mL; in test [2], below 0.003 µg/mL; in test [4] it was 1.9 µg/mL; in [17], 2.8 µg/mL; in test [18], 0.31 µg/mL; in test [5], 0.39 µg/mL. In addition, the IC50 was 0.47 µg/mL in [6]; 0.47 µg/mL in [7]; 0.47 µg/mL in test [8]; above 2.5 µg/mL in test [9]; 1.35 µg/mL in [10]. Besides, the median effective dose (ED50) in test [11] was determined as 3 mg/kg; in test [12] it was 3.5 mg/kg. Moreover, the MLC in [14] is above 500 µg/mL; in test [16] it was above 1000 µg/mL. Also, the results for the Activity in [19] and in [20] were 2.3 and below 1.8, respectively. Moreover, the LC30 in test [15] is above 500 µg/mL.

Consider `COc1cc(Cc2cnc(N)nc2N)cc(OC)c1OC.Cc1cc(NS(=O)(=O)c2ccc(N)cc2)no1` [CO-TRIMOXAZOLE], for which the values for the Activity in test [19] and in test [20] were 4.1 and below 1.8, respectively.

In test [17], `C[C@@H]([C@H](N)C(=O)N[C@H](C(=O)O)[C@H]1O[C@@H](n2cc(C=O)nc2O)[C@H](O)[C@@H]1O)[C@H](O)c1ccc(O)cn1` had a 50% inhibitory concentration (IC50) above 100 µg/mL.
